Results from PMC8401923, “Processing Impact on In Vitro and In Vivo Performance of Solid Dispersions—A Comparison between Hot-Melt Extrusion and Spray Drying” (Pharmaceutics, 2021).
≈ marks a conversion by molar mass, not a printed value. Like-named read-outs stand apart in the source and are kept apart here.

Experiments:
Format in all cases: physicochemical
pKa of posaconazole = assay: pKa of posaconazole
Excerpt: (§1) Table 1 Physical/chemical properties of posaconazole.

Log P of posaconazole = assay: Log P of posaconazole
Excerpt: as §1

[1] = Solubility of crystalline posaconazole
[2] = Two-stage biorelevant dissolution (SGF then FaSSIF)
Experimental: Simulated gastric fluid (SGF) was made with sodium chloride (34.2 mM), and the pH was adjusted to 1.8 with 12N HCl. The 2× fasted state simulated intestinal fluid (FaSSIF) was prepared using simulated intestinal fluid (SIF) powder (purchased from Biorelevant.com Ltd., London, UK), sodium phosphate monobasic monohydrate (114.5 mM), and sodium chloride (423.7 mM), and the pH was adjusted to 6.9 [35, 36].
Two-stage dissolution was performed on the solid dispersion powder at the dose relevant level of drug quantity using the Distek Model 2500 dissolution system (North Brunswick, NJ USA) with USP Apparatus 2 (paddles) setup. The paddles were operated at 100 rpm, and the dissolution medium was maintained at 37 ± 0.5 °C. The SGF medium of 250 mL was added for the first stage, and then FaSSIF medium of 250 mL at 30 min was added for the second stage to achieve the correct pH, ionic strength, and bile salt levels for FaSSIF. The time points that the sample was withdrawn were indicated by the dots in the dissolution plots. At each time point, ~2 mL was sampled and syringe-filtered (0.45 µm PVDF filter). The filtrate was diluted with diluent (water:acetonitrile = 1:1 v/v) and analyzed by an Agilent HPLC (Santa Clara, CA, USA) with a UV detector. […]

XPS surface composition = settings: 25% bulk drug loading with HPMCAS
Experimental: X-ray Photoelectron Spectroscopy (XPS). XPS experiments were performed using a Physical Electronics Quantera SXM instrument equipped with a monochromatic Al Kα x-ray source (hν = 1486.6 eV) and a concentric hemispherical analyzer. Charge neutralization was performed using low energy (1.5 eV) electrons and low energy (8 V) Ar^+ ions. The binding energy axis was calibrated using sputter cleaned Cu foil (Cu 2p3/2 = 932.62 eV) and Au foil (Au 4f7/2 = 83.96 eV). Spectra were charge references to C-(C,H) at 284.8 eV. All measurements were performed at an electron takeoff angle of 45° relative to the sample platen plane.

## CC[C@@H]([C@H](C)O)n1ncn(-c2ccc(N3CCN(c4ccc(OC[C@@H]5CO[C@@](Cn6cncn6)(c6ccc(F)cc6F)C5)cc4)CC3)cc2)c1=O [posaconazole]
pKa of posaconazole; piperazine N
  pKa: 3.6
pKa of posaconazole; triazole N
  pKa: 4.6
Log P of posaconazole
  logP: 5
[1]; fasted state simulated intestinal fluid (FaSSIF), fassif, read-out: Solubility
  solubility: 2 µg/mL (≈ 2.85 µM)
[1]; pH 1, read-out: Solubility
  solubility: 790 µg/mL (≈ 1130 µM)
[1]; pH 3, read-out: Solubility
  solubility: 3 µg/mL (≈ 4.28 µM)
[1]; pH 7, read-out: Solubility
  solubility: 1 µg/mL (≈ 1.43 µM)
[1]; simulated gastric fluid (SGF), pH 1.8, read-out: crystalline solubility
  solubility: ~790 µg/mL (≈ 1130 µM)
[2]; SGF pH 1.8, first 30 min
  drug release in SGF stage (in words): the percent dissolved is high
[2]; second stage, FaSSIF
  drug release in FaSSIF stage (in words): significantly drops to approximately the crystalline solubility
XPS surface composition
  ~API Loading on Surface Based on F and N: ~100%
